Results: patent US20070010518A1, “Method for administering levosimendan” (priority 2005, published 2007)

Experiments:
Format in all cases: in vivo, human
[1] = test system: patients with New York Heart Association functional class II to III heart failure; test: Doppler echocardiographic hemodynamic measurements in double-blind, placebo-controlled study
Protocol: (§1) A double-blind, placebo-controlled, parallel group, single center study in patients with New York Heart Association functional class II to III heart failure was conducted. Patients were randomised in 1:1 ratio to receive either levosimendan or placebo. Study drug administration was initiated with a loading dose of 12 μg/kg of levosimendan or placebo delivered over 10 minutes. This was followed by a continuous infusion of 0.1 μg/kg/min for 50 minutes. If the dose was well tolerated the infusion rate was increased to 0.2 μg/kg/min for a further 23 hours. After the study drug was started, the hemodynamic assessments were repeated at 30 minutes, at two and six hours. The non-invasive hemodynamic assessments were repeated at 24-hours. Follow-up visits took place at 2, 3, 5, 7, 9 and 14 days from the beginning of the study. On these visits echocardiographic measurements were performed and blood pressure and heart rate were measured.
An Acuson Sequoia ultrasound system with 2.5-3.75 MHz probes was used for the Doppler echocardiographic measurements. Blood flow velocity curves were recorded at a sweep speed of 100 mm/s. Left ventricular ejection fraction was assessed by two-dimensional apical two- and four-chamber views with use of modified Simpson rule. Mitral flow velocity was assessed by pulsed wave Doppler from the apical four-chamber view by placing a 3-mm sample volume between the tip of the mitral leaflets in diastole. The following measurements were made over five consecutive cycles: maximal early and maximal late diastolic velocity and their ratio, duration of the late diastolic velocity wave, deceleration time and deceleration rate of early diastolic velocity. Peak velocities were defined as the highest point of the spectrum.

[2] = test system: patients with New York Heart Association functional class II to III heart failure; test: Plasma natriuretic peptide (NT-proANP, NT-proBNP) measurements in double-blind, placebo-controlled study
Protocol: as §1
Blood samples (4 ml) for natriuretic peptide (NT-proANP, NT-proBNP) measurements were taken into pre-cooled EDTA tubes. Samples were taken at baseline (0-sample) and on the first study day 30 min, 2 h, 6h and 24 h after the start of the infusion and in the mornings of days 2, 3, 5, 7, 9 and 14 after the start of the study drug infusion.

[3] = test system: patients with New York Heart Association functional class II to III heart failure; test: Invasive hemodynamic assessments in double-blind, placebo-controlled study
Protocol: as §1

[4] = after starting the 24-hour infusion
[5] = echocardiography, 24-hour infusion
[6] = after start of 24-hour infusion

## C[C@@H]1CC(=O)NN=C1c1ccc(NN=C(C#N)C#N)cc1 [levosimendan, (−)-enantiomer of [[4-(1,4,5,6-tetrahydro-4-methyl-6-oxo-3-pyridazinyl)phenyl]hydrazono]propanedinitrile]
[1]; after levosimendan administration (24-hour infusion)
  Maintenance of beneficial hemodynamic and neurohormonal effects: maintained up to two weeks
[1]; [4]
  Time at which echocardiographically estimated PCWP reached its lowest value: 2 days
  Time of maximal effects on hemodynamic parameters: 1 to 3 days
[1]; [5]
  Linearly estimated duration of an increase in CO: 13 days
  Linearly estimated duration of the decrease in PCWP: 9 days
[1]; end of the 24-hour infusion
  Time at which highest CO value estimated by echocardiography was detected: 24 h
[2]; 24-hour infusion
  Duration of treatment effect on plasma NT-proANP estimated by a linear model: 16 days
  Duration of treatment effect on plasma NT-proBNP estimated by a linear model: 12 days
[2]; [6]
  Day at which plasma NT-proANP level reached its lowest value: 3 days
  Day at which plasma NT-proBNP level reached its lowest value: 2 days
[3]; at six hours, loading dose 12 μg/kg, then infusion 0.1-0.2 μg/kg/min
  Invasively measured cardiac output (CO): 5.4 L/min
[3]; baseline, levosimendan group
  Invasively measured cardiac output (CO): 4.3 L/min
[3]; baseline, levosimendan treatment
  PCWP: 20 mmHg
[3]; in response to levosimendan treatment, loading dose 12 μg/kg, then infusion 0.1-0.2 μg/kg/min
  PCWP: 15 mmHg
